Measurements reported in patent publication US11773146B2, “Disruption of the WAVE3 protein complex for suppression of invasion and metastasis” (UNIVERSITY OF GEORGIA RESEARCH FOUNDATION, INC., priority 2015, dated 2023).
Entries after “also recorded” stand apart in the source; their conditions may differ. Bridges are numbered along the chain shown (N, C = ends). Where no end group is shown, it is not given here. [ ]: non-standard residue; d: D form. S5 = C=CCCC[C@](C)(N)C(=O)O

What was measured:
[1] = test system: MDA-MB-231 cells; experiment: Transwell invasion assay (WANT peptides); type: cell-based
Excerpt: There are currently no small molecules that target WASF3 function directly, but targeting the WRC may provide a means of suppressing invasion.

[2] = test system: MDA-MB-231 and Hs578T cells; experiment: Cell proliferation, viability and toxicity with WANT3; type: cell-based
Excerpt: (§1) MDA-MB-231, Hs578T and T47D breast cancer cell lines were obtained directly from American Type Culture Collection (Rockville, Md.). MDA-MB-231 and T47D and have been verified using SNP-CGH (Teng Y, et al. Int J Cancer 2011 129:2825-2835) for characteristic cytogenetic changes. The ATCC Cell Authentication Testing service confirmed the identity of Hs578T using STR DNA fingerprinting analysis. Standard cell culture, transient transfections, RT-PCR, western blotting, immunoprecipitation (IP), flow cytometry, Biotin-Avidin pulldown, lentiviral transduction, cell proliferation and Transwell invasion assays were carried out as described previously (Teng Y, et al. Int J Cancer 2011 129:2825-2835; Teng Y, et al. J Biol Chem 2012 287:10051-10059; Teng Y, et al. Carcinogenesis 2013 34:1994-1999).

[3] = test system: WASF3; experiment: Western blot of WASF3 stability after WANT3; type: cell-based
Excerpt: as §1

[4] = test system: NCKAP1; experiment: Western blot of NCKAP1 protein after WANT3; type: cell-based; conditions: 10 μM
Excerpt: as §1

[5] = target: T1, WASF3 complex (Homo sapiens); experiment: IP of WASF3 complex after WANT3 or WAHM1 (phosphoactivation, RAC1 engagement); type: cell-based; conditions: MDA-MB-231 cells
T1 construct: endogenous in cells; host or cells: MDA-MB-231
Excerpt: as §1

[6] = test system: MDA-MB-231 cells; conditions: 37° C., after 7 days
Description: To evaluate the stability of these SPs, WANT3 was incubated in serum containing medium for varying lengths of time (1-7 days) at 37° C. and then this medium was added to MDA-MB-231 cells to evaluate the ability of the preincubated peptides to suppress invasion.

[7] = concentration range of 2.5-20 μM

T1 sequence (Q7L576 whole entry, one chain of several): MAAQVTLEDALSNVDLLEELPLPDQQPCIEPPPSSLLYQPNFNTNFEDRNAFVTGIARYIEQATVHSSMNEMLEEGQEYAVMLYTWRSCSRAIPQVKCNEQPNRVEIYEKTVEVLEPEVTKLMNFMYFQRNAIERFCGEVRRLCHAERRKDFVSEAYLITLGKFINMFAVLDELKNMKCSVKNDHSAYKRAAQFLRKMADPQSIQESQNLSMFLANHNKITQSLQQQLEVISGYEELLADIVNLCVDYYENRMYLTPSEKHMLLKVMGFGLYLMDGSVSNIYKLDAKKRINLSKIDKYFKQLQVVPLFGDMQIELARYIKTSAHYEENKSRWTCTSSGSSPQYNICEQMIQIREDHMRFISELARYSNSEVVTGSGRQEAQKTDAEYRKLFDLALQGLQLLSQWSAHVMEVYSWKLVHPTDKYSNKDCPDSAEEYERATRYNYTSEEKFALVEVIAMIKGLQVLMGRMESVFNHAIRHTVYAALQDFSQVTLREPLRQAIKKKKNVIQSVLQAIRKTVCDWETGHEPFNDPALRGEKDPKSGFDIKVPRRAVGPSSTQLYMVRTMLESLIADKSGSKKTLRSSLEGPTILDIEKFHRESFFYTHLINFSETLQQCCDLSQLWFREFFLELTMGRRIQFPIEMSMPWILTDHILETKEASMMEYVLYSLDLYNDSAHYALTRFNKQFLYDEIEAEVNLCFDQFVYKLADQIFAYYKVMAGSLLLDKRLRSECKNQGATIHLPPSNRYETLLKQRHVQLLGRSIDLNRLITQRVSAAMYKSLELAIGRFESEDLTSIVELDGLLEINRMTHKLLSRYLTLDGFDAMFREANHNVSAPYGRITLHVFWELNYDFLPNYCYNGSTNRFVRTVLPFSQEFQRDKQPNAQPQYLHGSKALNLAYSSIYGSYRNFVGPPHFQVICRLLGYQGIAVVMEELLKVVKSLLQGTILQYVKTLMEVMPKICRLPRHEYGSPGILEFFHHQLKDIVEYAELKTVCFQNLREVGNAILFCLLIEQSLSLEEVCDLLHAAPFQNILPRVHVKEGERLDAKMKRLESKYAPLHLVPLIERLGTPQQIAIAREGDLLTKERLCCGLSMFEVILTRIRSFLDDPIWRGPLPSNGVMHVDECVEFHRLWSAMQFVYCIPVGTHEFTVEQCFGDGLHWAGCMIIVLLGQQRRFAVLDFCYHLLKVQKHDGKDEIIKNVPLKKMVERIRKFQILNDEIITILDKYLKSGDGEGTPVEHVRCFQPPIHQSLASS

## VLXRNAXHAVYK (VL[S5]RNA[S5]HAVYK-NH2; staple 3-7; not fully specified (N-terminus); also: FITC label (in alias), site not given here) [WANT3]
[1]
  suppression of invasion, WAHM1 compared with WANT3: comparable suppression of invasion
[1]; final concentration of 10 μM
  invasion potential: highly significant suppression of invasion; also recorded: significantly suppresses
[1]; high dose 20 μM compared with low dose
  invasion at increased concentration: greater suppression of invasion; also recorded: more remarkable reduction
[2]; 10 μM
  cell proliferation: without affecting cell proliferation
  in vitro cell toxicity: minimal
[2]; [7]
  cell proliferation rate: does not affect
  viability: does not affect
[3]
  concentration achieving maximal effect on WASF3 stability: 20 µM
[3]; 10 μM, compared with scrambled peptide
  WASF3 stability / protein levels: significant destabilization of WASF3; also recorded: suppresses both WASF3 and NCKAP1 protein levels
[3]; MDA-MB-231 cells
  destabilization of WASF3, WANT3 compared with WHAM1: more efficient in destabilizing WASF3
  dose dependence of WASF3 destabilization: suppresses WASF3 protein levels in a dose-dependent manner; also recorded: dose-dependent destabilization of the WASF3 protein
[4]
  NCKAP1 protein levels: loss of the NCKAP1 protein; also recorded: suppresses both WASF3 and NCKAP1 protein levels
[5]
  engagement of RAC1 with the WASF3 complex, WANT3 compared with WHAM1: more significant
  phosphoactivation of WASF3, WANT3 compared with WAHM1: more significantly
[6]
  suppression of invasion after preincubation in serum-containing medium: residual effect on suppression of invasion
